These results are taken from patent US7141561B2, “Substituted diaryl heterocycles, process for their preparation and their use as medicaments” (Sanofi-Aventis Deutschland GmbH, priority 2002, dated 2006).

This experiment deals with female NMRI mice. In words: Anorectic effect: cumulative condensed milk consumption of mice. The class given is in vivo. Particulars: oral dose 30 mg/kg by gavage. As to the method:
The anorectic effect was tested on female NMRI mice. After withdrawal of food for 17 hours, the test compound was administered by gavage. The animals were housed singly with free access to drinking water and were offered condensed milk 30 minutes after administration of the compound. Condensed milk consumption was determined every half hour for 7 hours, and the general wellbeing of the animals was observed. The measured milk consumption was compared with the vehicle-treated control animals.
Table 1: Anorectic effect measured as the reduction in the cumulative milk consumption of treated compared with control animals.

Regarding `CN(C)CCOc1ccc(-n2ccn(-c3ccc(Oc4ccccc4)cc3)c2=O)cc1` [Example 1, 1-[4-(2-Dimethylaminoethoxy)phenyl]-3-(4-phenoxyphenyl)-1,3-dihydroimidazol-2-one], under “female NMRI mice after 17 hours food withdrawal, N=5, consumption determined for 7 hours”, the “cumulative milk consumption of the treated animals” value is 5/1.7 ml. The “Reduction in the cumulative milk consumption as % of the control” value (female NMRI mice, compared with vehicle-treated control animals) was determined as 58%.
